tested on: HIV; assay: MT4 assay: antiviral HIV activity (cell protection, cell titer glo readout at 96 hours); assay type: cell-based; details: Human immunodeficiency virus 1, MT4, 96 h, MT4 cells, cell titer glo readout at 96 hours, 10 point dose response; read-out: HIV MT4 Assay IC50
Experimental: Antiviral HIV activity and cytotoxicity values for compounds of the invention from Table 1 were measured in parallel in the HTLV-1 transformed cell line MT-4 based on the method previously described (Hazen et al., 2007, In vitro antiviral activity of the novel, tyrosyl-based human immunodeficiency virus (HIV) type 1 protease inhibitor brecanavir (GW640385) in combination with other antiretrovirals and against a panel of protease inhibitor-resistant HIV (Hazen et al., “In vitro antiviral activity of the novel, tyrosyl-based human immunodeficiency virus (HIV) type 1 protease inhibitor brecanavir (GW640385) in combination with other antiretrovirals and against a panel of protease inhibitor-resistant HIV”, Antimicrob. Agents Chemother. 2007, 51: 3147-3154; and Pauwels et al., “Sensitive and rapid assay on MT-4 cells for the detection of antiviral compounds against the AIDS virus”, J. of Virological Methods 1987, 16: 171-185).
Luciferase activity was measured 96 hours later by adding a cell titer glo (Promega, Madison, Wis.). Percent inhibition of cell protection data was plotted relative to no compound control. Under the same condition, cytotoxicity of the compounds was determined using cell titer Glo™ (Promega, Madison, Wis.). IC50s were determined from a 10 point dose response curve using 3-4-fold serial dilution for each compound, which spans a concentration range >1000 fold.
These values are plotted against the molar compound concentrations using the standard four parameter logistic equation:
y=((Vmax*x̂n)/(K̂n+x̂n))+Y2
Y2=minimum y n=slope factor
Vmax=maximum y x=compound concentration [M]

IC50 | Structure (SMILES)
2.1 nM | Cc1nc2c(cc(-c3ccnc(-c4ccc5cn(C)nc5c4)c3)n2C)c(-c2cc(F)c3c(c2C)CCCO3)c1[C@H](OC(C)(C)C)C(=O)O (atropisomer, axis not shown) [Example 53]
4.6 nM | Cc1nc2c(cc(-c3ccnc(-c4ccc5c(cnn5C5CC5)c4)c3)n2C)c(-c2cc(F)c3c(c2C)CCCO3)c1[C@H](OC(C)(C)C)C(=O)O (atropisomer, axis not shown) [Example 54]
410 nM | Cc1nc2c(cc(-c3ccnc(-c4ccc5[nH]c(=O)[nH]c5c4)c3)n2C)c(-c2cc(F)c3c(c2C)CCCO3)c1[C@H](OC(C)(C)C)C(=O)O (atropisomer, axis not shown) [Example 55]
15 nM | Cc1nc2c(cc(-c3ccnc(-c4ccc5c(c4)NCC5)c3)n2C)c(-c2cc(F)c3c(c2C)CCCO3)c1[C@H](OC(C)(C)C)C(=O)O (atropisomer, axis not shown) [Example 56]
1.4 nM | Cc1nc2c(cc(-c3ccnc(-c4ccc5c(cnn5C)c4)c3)n2C)c(-c2cc(F)c3c(c2C)CCCO3)c1[C@H](OC(C)(C)C)C(=O)O (atropisomer, axis not shown) [Example 57]
5.4 nM | Cc1nc2c(cc(-c3ccnc(-c4cccc5c4cnn5C)c3)n2C)c(-c2cc(F)c3c(c2C)CCCO3)c1[C@H](OC(C)(C)C)C(=O)O (atropisomer, axis not shown) [Example 58]
16 nM | Cc1nc2c(cc(-c3ccnc(-c4cccc5cnn(C)c45)c3)n2C)c(-c2cc(F)c3c(c2C)CCCO3)c1[C@H](OC(C)(C)C)C(=O)O (atropisomer, axis not shown) [Example 59]
3.7 nM | Cc1nc2c(cc(-c3ccnc(-c4ccc5c(c4)nnn5C)c3)n2C)c(-c2cc(F)c3c(c2C)CCCO3)c1[C@H](OC(C)(C)C)C(=O)O (atropisomer, axis not shown) [Example 60]
2.9 nM | Cc1nc2c(cc(-c3ccnc(-c4cnc5[nH]ccc5c4)c3)n2C)c(-c2cc(F)c3c(c2C)CCCO3)c1[C@H](OC(C)(C)C)C(=O)O (atropisomer, axis not shown) [Example 62]
15.4 nM | Cc1nc2c(cc(-c3ccnc(-n4ccnc4C)c3)n2C)c(-c2cc(F)c3c(c2C)CCCO3)c1[C@H](OC(C)(C)C)C(=O)O (atropisomer, axis not shown) [Example 63]
8.6 nM | Cc1nc2c(cc(-c3ccnc(-c4cnc5c(cnn5C)c4)c3)n2C)c(-c2cc(F)c3c(c2C)CCCO3)c1[C@H](OC(C)(C)C)C(=O)O (atropisomer, axis not shown) [Example 66]
45 nM | Cc1nc2c(cc(-c3ccnc(-c4ccn5cc(C(F)(F)F)nc5c4)c3)n2C)c(-c2cc(F)c3c(c2C)CCCO3)c1[C@H](OC(C)(C)C)C(=O)O (atropisomer, axis not shown) [Example 67]
6.4 nM | Cc1nc2c(cc(-c3ccnc(-c4ccc5[nH]ncc5c4C)c3)n2C)c(-c2cc(F)c3c(c2C)CCCO3)c1[C@H](OC(C)(C)C)C(=O)O (atropisomer, axis not shown) [Example 68]
4.8 nM | Cc1nc2c(cc(-c3ccnc(-c4ccc(N(C)C)nc4)c3)n2C)c(-c2cc(F)c3c(c2C)CCCO3)c1[C@H](OC(C)(C)C)C(=O)O (atropisomer, axis not shown) [Example 69]
3.1 nM | Cc1nc2c(cc(-c3ccnc(-c4cnc(N5CCN(C)CC5)nc4)c3)n2C)c(-c2cc(F)c3c(c2C)CCCO3)c1[C@H](OC(C)(C)C)C(=O)O (atropisomer, axis not shown) [Example 70]
4.6 nM | Cc1nc2c(cc(-c3ccnc(-c4cnc5c(c4)CCCN5)c3)n2C)c(-c2cc(F)c3c(c2C)CCCO3)c1[C@H](OC(C)(C)C)C(=O)O (atropisomer, axis not shown) [Example 72]
645 nM | Cc1nc2c(cc(-c3ccnc(N4CCn5c(C)nnc5C4)c3)n2C)c(-c2cc(F)c3c(c2C)CCCO3)c1[C@H](OC(C)(C)C)C(=O)O (atropisomer, axis not shown) [Example 79]
21.3 nM | Cc1nc2c(cc(-c3ccnc(N4CCC(C)CC4)c3)n2C)c(-c2cc(F)c3c(c2C)CCCO3)c1[C@H](OC(C)(C)C)C(=O)O (atropisomer, axis not shown) [Example 80]
2280 nM | Cc1nc2c(cc(-c3ccnc(NC4COC4)c3)n2C)c(-c2cc(F)c3c(c2C)CCCO3)c1[C@H](OC(C)(C)C)C(=O)O (atropisomer, axis not shown) [Example 81]
47.7 nM | Cc1nc2c(cc(-c3ccnc(N4CCN(C(=O)c5ccccc5)CC4)c3)n2C)c(-c2cc(F)c3c(c2C)CCCO3)c1[C@H](OC(C)(C)C)C(=O)O (atropisomer, axis not shown) [Example 82]

IC50 | Structure (SMILES)
52.5 nM | Cc1nc2c(cc(-c3ccnc(N4CCN(c5ccccc5)CC4)c3)n2C)c(-c2cc(F)c3c(c2C)CCCO3)c1[C@H](OC(C)(C)C)C(=O)O (atropisomer, axis not shown) [Example 83]
14.7 nM | Cc1nc2c(cc(-c3ccnc(N4CCN(c5nccs5)CC4)c3)n2C)c(-c2cc(F)c3c(c2C)CCCO3)c1[C@H](OC(C)(C)C)C(=O)O (atropisomer, axis not shown) [Example 84]
12.7 nM | Cc1nc2c(cc(-c3ccnc(N4CCCN(C5COC5)CC4)c3)n2C)c(-c2cc(F)c3c(c2C)CCCO3)c1[C@H](OC(C)(C)C)C(=O)O (atropisomer, axis not shown) [Example 85]
13.2 nM | COC1CCN(c2cc(-c3cc4c(-c5cc(F)c6c(c5C)CCCO6)c([C@H](OC(C)(C)C)C(=O)O)c(C)nc4n3C)ccn2)CC1 (atropisomer, axis not shown) [Example 86]
42.8 nM | Cc1nc2c(cc(-c3ccnc(N4CCC(N(C)C)CC4)c3)n2C)c(-c2cc(F)c3c(c2C)CCCO3)c1[C@H](OC(C)(C)C)C(=O)O (atropisomer, axis not shown) [Example 87]
13.4 nM | Cc1nc2c(cc(-c3ccnc(N4CCN(c5ccncc5)CC4)c3)n2C)c(-c2cc(F)c3c(c2C)CCCO3)c1[C@H](OC(C)(C)C)C(=O)O (atropisomer, axis not shown) [Example 88]
25 nM | CC(=O)N1CCN(c2cc(-c3cc4c(-c5cc(F)c6c(c5C)CCCO6)c([C@H](OC(C)(C)C)C(=O)O)c(C)nc4n3C)ccn2)CC1 (atropisomer, axis not shown) [Example 89]
13.3 nM | Cc1nc2c(cc(-c3ccnc(N4CCN(c5ccccn5)CC4)c3)n2C)c(-c2cc(F)c3c(c2C)CCCO3)c1[C@H](OC(C)(C)C)C(=O)O (atropisomer, axis not shown) [Example 90]
12.2 nM | Cc1nc2c(cc(-c3ccnc(N4CCN(C5CCCC5)CC4)c3)n2C)c(-c2cc(F)c3c(c2C)CCCO3)c1[C@H](OC(C)(C)C)C(=O)O (atropisomer, axis not shown) [Example 91]
19.6 nM | Cc1nc2c(cc(-c3ccnc(N4CCN(S(C)(=O)=O)CC4)c3)n2C)c(-c2cc(F)c3c(c2C)CCCO3)c1[C@H](OC(C)(C)C)C(=O)O (atropisomer, axis not shown) [Example 92]
23.9 nM | Cc1nc2c(cc(-c3ccnc(N4CCN(c5ncccn5)CC4)c3)n2C)c(-c2cc(F)c3c(c2C)CCCO3)c1[C@H](OC(C)(C)C)C(=O)O (atropisomer, axis not shown) [Example 93]
50.8 nM | Cc1nc2c(cc(-c3ccnc(N4CCCN(C)CC4)c3)n2C)c(-c2cc(F)c3c(c2C)CCCO3)c1[C@H](OC(C)(C)C)C(=O)O (atropisomer, axis not shown) [Example 94]
52.4 nM | CC(=O)N1CCCN(c2cc(-c3cc4c(-c5cc(F)c6c(c5C)CCCO6)c([C@H](OC(C)(C)C)C(=O)O)c(C)nc4n3C)ccn2)CC1 (atropisomer, axis not shown) [Example 95]
350 nM | Cc1nc2c(cc(-c3ccnc(N4CCCNCC4)c3)n2C)c(-c2cc(F)c3c(c2C)CCCO3)c1[C@H](OC(C)(C)C)C(=O)O (atropisomer, axis not shown) [Example 96]
16.5 nM | Cc1nc2c(cc(-c3ccnc(N4CCCN(S(C)(=O)=O)CC4)c3)n2C)c(-c2cc(F)c3c(c2C)CCCO3)c1[C@H](OC(C)(C)C)C(=O)O (atropisomer, axis not shown) [Example 97]
16.2 nM | Cc1nc2c(cc(-c3ccnc(N4CCCN(C(C)C)CC4)c3)n2C)c(-c2cc(F)c3c(c2C)CCCO3)c1[C@H](OC(C)(C)C)C(=O)O (atropisomer, axis not shown) [Example 98]
14.8 nM | Cc1nc2c(cc(-c3ccnc(N4C[C@H]5CC[C@@H]4C5)c3)n2C)c(-c2cc(F)c3c(c2C)CCCO3)c1[C@H](OC(C)(C)C)C(=O)O (atropisomer, axis not shown) [Example 99]
14.2 nM | CC1=CCN(c2cc(-c3cc4c(-c5cc(F)c6c(c5C)CCCO6)c([C@H](OC(C)(C)C)C(=O)O)c(C)nc4n3C)ccn2)CC1 (atropisomer, axis not shown) [Example 100]
67.4 nM | Cc1nc2c(cc(-c3ccnc(N4CCCN(C(=O)C5CCCC5)CC4)c3)n2C)c(-c2cc(F)c3c(c2C)CCCO3)c1[C@H](OC(C)(C)C)C(=O)O (atropisomer, axis not shown) [Example 101]
45 nM | Cc1nc2c(cc(-c3ccnc(N4CCCN(C(=O)C(C)C)CC4)c3)n2C)c(-c2cc(F)c3c(c2C)CCCO3)c1[C@H](OC(C)(C)C)C(=O)O (atropisomer, axis not shown) [Example 102]
